In a melting point compilation (Tetko et al.; mined from patent text by program, amines drawn as free bases though some values may be those of a salt):

melting point [°C] | SMILES
151 to 152 | COc1cc(OC)n2sc(=NS(=O)(=O)Cc3ccccc3OC(F)F)nc2n1
144 to 146 | CCOC(=O)Cc1nc(-c2ccc(Cl)cc2)oc1OCC
133 to 135 | CS(=O)(=O)Nc1ccc2[nH]ccc2c1
192 to 193 | CCOC(=O)c1c(CN2CCNCC2)nc2cc(OC)c(OC)cc2c1-c1ccc(OC)c(OC)c1
186 to 188 | O=Cc1coc2ccc(Br)cc2c1=O
141 to 143 | Cc1ccccc1N1CCN(C(=O)c2ccc3n2Cc2ccccc2N(C(=O)c2ccc(C4CCCCC4)cc2)C3)CC1
220 to 222 | CCNC(=O)c1ccc(Oc2c(C)n(CC(=O)O)c3ccc(F)cc23)cc1
121 to 123 | CCOC(=O)C(=Cc1cccn2cc(C)nc12)N=[N+]=[N-]
263 to 265 | O=C1CCC(N2Cc3c(OCc4ccc(CN5CCOCC5)c(F)c4)cccc3C2=O)C(=O)N1 (centres undefined)
110 to 113 | OC(=S)CCC1CCN(Cc2ccc3c(c2)Nc2nccnc2S3)CC1
222 to 224 | FC(F)(F)c1nc2nc(Cl)c(Cl)cc2[nH]1
122 to 129 | COC(=O)CCc1cc2cc(Cl)ccc2n1S(=O)(=O)c1ccc2c(c1)OCO2
265 to 267 | O=C(Nc1nc[nH]n1)c1ccc(-c2ccc3nnn(Cc4ccc5ncccc5c4)c3n2)cc1F
183 to 185 | Nc1ccc(NCCCNc2cccc3c2C(=O)c2ccccc2C3=O)cc1
213 to 214 | O=C(O)C(=O)c1ccc(OCCOc2ccc3cc4ccccc4cc3c2)cc1
109 to 111 | CN(C)C(C)(C)C(N)=O
188 to 190 | CC(=O)OCc1nc2c(NCc3c(C)cccc3C)cc(Br)cc2n1C
149 | Cc1cc2ccccn2c1C(=O)c1ccc([N+](=O)[O-])cc1
93 to 95 | COc1ccc2cc(C(=O)C(C)(C)c3ccccc3)oc2c1
56 to 57 | CN(CCSc1ccc([N+](=O)[O-])cc1)CCc1ccc([N+](=O)[O-])cc1

Second part, the molecule before the results:

SMILES | melting point [°C]
CN=C(NCc1ccccc1)NN=Cc1c(Cl)cccc1Cl | 84 to 86
CSc1ncc(F)c(N)n1 | 114 to 115
COC(=O)C1CCCc2c(noc2-c2ccc(Cl)cc2)C1 (centres undefined) | 94 to 95
O=C(O)Cc1c(Cl)c(F)nc(F)c1Cl | 157 to 159
O=C1C[C@]2(CCCC[C@H]2Cc2ccccc2)S(=O)(=O)CCN1Cc1cccnc1 | 220 to 221
CN(C(=O)Cc1csc(N)n1)c1ccc(Cl)cc1 | 148 to 150
CCOC(=O)C(=O)Nc1cccnc1 | 98 to 100
COc1ccc(CC(=O)c2ccc(OC)c(F)c2)cc1 | 142 to 143
CCOC(=O)C1=C(C)NN=C(CC)C1c1ccccc1C(F)(F)F (centres undefined) | 124
O=C(c1ccc(Cl)cc1)c1c(N2C(=O)c3ccccc3C2=O)sc(Br)c1CN1CCN(c2ccccc2)CC1 | 186 to 193
CC(C)(C)S(=O)C1CC(=O)N1CC(=O)CCc1ccccc1 (centres undefined) | 79 to 81
Cc1nc2ncnn2c2c1CCN2Cc1ccccc1 | 170 to 172
Nc1cc(C(O)=S)cc(SCc2ccccc2)c1-c1ccccc1 | 170 to 172
COC(=O)c1ccccc1S(=O)(=O)NC(=O)Nc1nc(OC)cc(OC)n1 | 185 to 190
O=C(NC1CC=CC1)OCc1ccccc1 | 56 to 57
CCOc1c(C23OCC(C)(C)C2(C(C)(C)C)OO3)sc2ccc(O[Si](C)(C)C(C)(C)C)cc12 (centres undefined) | 106 to 107
CCCc1c(OCCCOc2ccc3c(c2CCC)OC(C)(CCC(=O)N(C)CC(=O)OCC)CC3=O)ccc(C(C)=O)c1O (centres undefined) | 101 to 102
CCCc1c(C(=O)C2CCCCC2)c2ccc(C(N)=O)cc2n1Cc1cc2c(cc1Cl)OCO2 | 209 to 211
O=C(Oc1ccc2c(c1)OC=C(C(=O)N1CCN(C(c3ccc(F)cc3)c3ccc(F)cc3)CC1)O2)c1cccnc1 | 142
